Values quoted from earlier work as cited in US9260408B2, “Dihydroquinoline-2-one derivatives” (Hoffmann-La Roche Inc., priority 2011, dated 2016).

Tests used:
[1] = tested on: rats with experimental heart failure; conditions: rat, in vivo; cited from earlier work
[2] = tested on: rat model of chronic kidney disease; conditions: cited from earlier work; for plasma aldosterone: FAD286: 4 weeks of treatment, spironolactone: 4 and 8 weeks of treatment; for renal effects (albuminuria, azotemia, renovascular hypertrophy, glomerular injury, PAI-1 and osteopontin mRNA, tubulointerstitial fibrosis): angiotensin II and high salt treatment; for angiotensin II and salt-stimulated PAI-1 mRNA expression in the aorta and the heart: rat, in vivo
[3] = molecular target: CYP11B2 (Homo sapiens, UniProt P19099); conditions: patients with primary aldosteronism, cited from earlier work
CYP11B2, sequence (P19099 25-503): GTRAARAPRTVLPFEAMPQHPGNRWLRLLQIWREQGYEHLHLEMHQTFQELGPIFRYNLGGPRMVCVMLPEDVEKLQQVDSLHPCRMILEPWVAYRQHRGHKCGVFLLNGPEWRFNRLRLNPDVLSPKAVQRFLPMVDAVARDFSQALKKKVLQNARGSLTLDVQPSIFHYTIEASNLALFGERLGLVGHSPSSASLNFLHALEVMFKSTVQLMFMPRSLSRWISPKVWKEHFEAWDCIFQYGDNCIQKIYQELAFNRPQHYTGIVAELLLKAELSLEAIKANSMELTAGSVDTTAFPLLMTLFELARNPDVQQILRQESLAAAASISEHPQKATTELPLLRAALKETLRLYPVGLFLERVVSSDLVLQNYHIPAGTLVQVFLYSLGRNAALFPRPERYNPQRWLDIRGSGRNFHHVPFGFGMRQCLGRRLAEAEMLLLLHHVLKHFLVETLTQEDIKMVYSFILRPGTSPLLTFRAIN

Row | Compound | blood pressure and cardiovascular function and structure [1] | kidney function and morphology [1] | plasma aldosterone [2] | renal effects (albuminuria, azotemia, renovascular hypertrophy, glomerular injury, PAI-1 and osteopontin mRNA, tubulointerstitial fibrosis) [2] | angiotensin II and salt-stimulated PAI-1 mRNA expression in the aorta and the heart [2] | circulating aldosterone levels ([3]; oral) | blood pressure [3] | hypokalemia [3] | selectivity (effects on the glucocorticoid axis) [3]
1 | N#Cc1ccc(C2CCCc3cncn32)cc1 (stereo not drawn) [FAD286] | improved | improve | reduced | prevented these renal effects | not | – | – | – | –
2 | N#Cc1ccc([C@H]2CCc3cncn32)c(F)c1 [LCI699] | – | – | – | – | – | significantly lower | mildly decreased | corrected | poor selectivity
3 | CC(=O)S[C@@H]1CC2=CC(=O)CC[C@]2(C)[C@H]2CC[C@@]3(C)[C@@H](CC[C@@]34CCC(=O)O4)[C@H]12 [spironolactone] | – | – | increased | prevented these renal effects | enhanced | – | – | – | –
